Patent EP4417602A1, “SUBSTITUTED PYRAZOLE CARBOXAMIDES, SALTS THEREOF AND THEIR USE AS HERBICIDALLY ACTIVE SUBSTANCES” (Bayer AG, priority 2023, dated 2024)

Experiments:
[1] = system: ECHCG; test: A. Herbicidal pre-emergence action on harmful plants (Tables A); type: in vivo, Echinochloa crus-galli; conditions: visual grading after ca. 3 weeks vs untreated controls, 100% = plants have died off, 0% = as control plants
In short: (§1)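 Greenhouse pre-emergence test: compound applied to the soil surface at 1280 g/ha or below, and herbicidal effect rated visually at ca. 3 weeks on a 0–100% scale against untreated plants.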

[2] = system: LOLRI; test: as above; type: in vivo, Lolium rigidum; conditions: visual grading after ca. 3 weeks vs untreated controls, 100% = plants have died off, 0% = as control plants
In short: as §1

[3] = system: MATIN; test: as above; type: in vivo, Matricaria inodora; conditions: visual grading after ca. 3 weeks vs untreated controls, 100% = plants have died off, 0% = as control plants
In short: as §1

[4] = system: SETVI; test: as above; type: in vivo, Setaria viridis; conditions: visual grading after ca. 3 weeks vs untreated controls, 100% = plants have died off, 0% = as control plants
In short: as §1

[5] = system: STEME; test: as above; type: in vivo, Stellaria media; conditions: visual grading after ca. 3 weeks vs untreated controls, 100% = plants have died off, 0% = as control plants
In short: as §1

[6] = system: POAAN; test: as above; type: in vivo, Poa annua
In short: as §1

[7] = system: DIGSA; test: as above; type: in vivo, Digitaria sanguinalis
In short: as §1

[8] = system: KCHSC; test: B. Herbicidal post-emergence action on harmful plants (Tables B); type: in vivo, Kochia scoparia; conditions: application rate 1280 g/ha; Table B10a
Protocol: (§2) Seeds of mono- and dicotyledonous weed plants were placed in plastic pots in sandy loam soil (doubly sown with in each case one species of mono- or dicotyledonous weed plants per pot), covered with soil and cultivated in a greenhouse under controlled growth conditions. 2 to 3 weeks after sowing, the test plants were treated at the one-leaf stage. The compounds of the invention, formulated in the form of wettable powders (WP) or as emulsion concentrates (EC), were applied onto the green parts of the plants as aqueous suspension or emulsion with addition of 0.5% additive at a water application rate of 600 liters per hectare (converted). After the test plants had been kept in the greenhouse under optimum growth conditions for about 3 weeks, the activity of the preparations was rated visually in comparison to untreated controls. For example, 100% activity = the plants have died, 0% activity = like control plants. Tables B1 to B12, below, show the effects of selected compounds of the general formula (I) according to table 1 on various harmful plants and an application rate corresponding to 1280 g/ha or below obtained by the experimental procedure mentioned above. Table B1a: post-emergence activity at 1280g/ha against ABUTH in %

[9] = system: AMARE; test: A. Herbicidal pre-emergence action on harmful plants (Tables A); type: in vivo, Amaranthus retroflexus
In short: as §1

[10] = system: ALOMY; test: as above; type: in vivo, Alopecurus myosuroides
In short: as §1

[11] = system: VERPE; test: as above; type: in vivo, Veronica persica; conditions: application rate 1280 g/ha; Table A11
Text: Seeds of mono- and dicotyledonous weed plants were sown in plastic pots (double sowings with one species of mono- and one species of dicotyledonous weed plants per pot), in sandy loam, and covered with soil. The compounds according to the invention, formulated in the form of wettable powders (WP) or as emulsifiable concentrates (EC), were applied to the surface of the covering soil as aqueous suspension or emulsion, with the addition of 0.5% of an additive, at an application rate of 6001 of water per hectare (converted). Following treatment, the pots were placed in a greenhouse and kept under optimum growth conditions for the test plants. The visual grading of the damage to the test plants was carried out after ca. 3 weeks in comparison to untreated controls (herbicidal effect in percent (%): 100% effect = plants have died off, 0% effect = as control plants). Tables A1 to A12, below, show the effects of selected compounds of the general formula (I) according to table 1 on various harmful plants and an application rate corresponding to 1280 g/ha or below obtained by the experimental procedure mentioned above. Table A1: pre-emergence activity at 1280g/ha against ABUTH in %

[12] = system: ABUTH; test: B. Herbicidal post-emergence action on harmful plants (Tables B); type: in vivo, Abutilon theophrasti; conditions: application rate 1280 g/ha; Table B1a
In short: (§3)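 Activity was scored visually as % damage (100% = dead, 0% = like untreated) about 3 weeks after treatment. Plants at the one-leaf stage, 2-3 weeks old, were sprayed with WP/EC formulations plus 0.5% additive (600 L/ha water, up to 1280 g/ha). Plants were grown in sandy loam in a greenhouse.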

[13] = system: ECHCG; test: as above; type: in vivo, Echinochloa crus-galli
In short: as §3

[14] = system: LOLRI; test: as above; type: in vivo, Lolium rigidum; conditions: application rate 1280 g/ha; Table B3
Protocol: as §2

[15] = system: MATIN; test: as above; type: in vivo, Matricaria inodora; conditions: application rate 1280 g/ha; Table B4a
In short: as §3

[16] = system: SETVI; test: as above; type: in vivo, Setaria viridis; conditions: application rate 1280 g/ha; Table B5
In short: as §3

[17] = system: STEME; test: as above; type: in vivo, Stellaria media; conditions: application rate 1280 g/ha; Table B6
In short: as §3

[18] = system: POAAN; test: as above; type: in vivo, Poa annua
In short: as §3

[19] = system: AMARE; test: as above; type: in vivo, Amaranthus retroflexus; conditions: application rate 1280 g/ha; Table B8
Protocol: as §2

[20] = system: VERPE; test: as above; type: in vivo, Veronica persica
In short: as §3

[21] = system: DIGSA; test: as above; type: in vivo, Digitaria sanguinalis; conditions: application rate 1280 g/ha; Table B12a
In short: as §3

[22] = application rate 80 g/ha, Table A7c
[23] = application rate 320 g/ha, Table A7b
[24] = application rate 1280 g/ha, visual grading after ca. 3 weeks vs untreated controls, 100% = plants have died off, 0% = as control plants
[25] = application rate 320 g/ha, Table A12b
[26] = application rate 1280 g/ha, Table A12a

COCc1c(C(=O)N2CCCC2Cc2ccccc2F)cnn1C (racemic) [Example I-171]
pre-emergence activity against ECHCG ([1]; application rate 320 g/ha): 90%
pre-emergence activity against ECHCG ([1]; application rate 1280 g/ha): 100%
pre-emergence activity against LOLRI ([2]; application rate 320 g/ha): 90%
pre-emergence activity against LOLRI ([2]; application rate 1280 g/ha): 100%
pre-emergence activity against MATIN ([3]; application rate 1280 g/ha): 100%
pre-emergence activity against SETVI ([4]; application rate 320 g/ha): 90%
pre-emergence activity against SETVI ([4]; application rate 1280 g/ha): 100%
pre-emergence activity against STEME ([5]; application rate 1280 g/ha): 90%
pre-emergence activity against POAAN [6, 22]: 90%
pre-emergence activity against POAAN [6, 23]: 100%
pre-emergence activity against POAAN [6, 24]: 100%
pre-emergence activity against DIGSA [7, 25]: 90%
pre-emergence activity against DIGSA [7, 26]: 100%
post-emergence activity against KCHSC [8]: 90%

COCc1nn(C)cc1C(=O)N1CCCC1Cc1ccc(F)cc1F (single isomer, unassigned) [Example I-079]
pre-emergence activity against ECHCG ([1]; application rate 80 g/ha): 90%
pre-emergence activity against ECHCG ([1]; application rate 320 g/ha): 90%
pre-emergence activity against ECHCG ([1]; application rate 1280 g/ha): 90%
pre-emergence activity against LOLRI ([2]; application rate 80 g/ha): 90%
pre-emergence activity against LOLRI ([2]; application rate 320 g/ha): 100%
pre-emergence activity against LOLRI ([2]; application rate 1280 g/ha): 100%
pre-emergence activity against MATIN ([3]; application rate 80 g/ha): 90%
pre-emergence activity against MATIN ([3]; application rate 320 g/ha): 90%
pre-emergence activity against MATIN ([3]; application rate 1280 g/ha): 90%
pre-emergence activity against SETVI ([4]; application rate 80 g/ha): 90%
pre-emergence activity against SETVI ([4]; application rate 320 g/ha): 90%
pre-emergence activity against SETVI ([4]; application rate 1280 g/ha): 90%
pre-emergence activity against STEME ([5]; application rate 80 g/ha): 90%
pre-emergence activity against STEME ([5]; application rate 320 g/ha): 90%
pre-emergence activity against STEME ([5]; application rate 1280 g/ha): 90%
pre-emergence activity against POAAN [6, 22]: 100%
pre-emergence activity against POAAN [6, 23]: 100%
pre-emergence activity against POAAN [6, 24]: 100%
pre-emergence activity against AMARE ([9]; application rate 320 g/ha, Table A8b): 90%
pre-emergence activity against AMARE [9, 24]: 90%
pre-emergence activity against ALOMY ([10]; application rate 320 g/ha, Table A9b): 90%
pre-emergence activity against ALOMY ([10]; application rate 1280 g/ha, Table A9a): 90%
pre-emergence activity against VERPE [11]: 90%
pre-emergence activity against DIGSA ([7]; application rate 80 g/ha, Table A12c): 90%
pre-emergence activity against DIGSA [7, 25]: 90%
pre-emergence activity against DIGSA [7, 26]: 90%
post-emergence activity against ABUTH [12]: 90%
post-emergence activity against ECHCG ([13]; application rate 320 g/ha, Table B2b): 90%
post-emergence activity against ECHCG ([13]; application rate 1280 g/ha, Table B2a): 90%
post-emergence activity against LOLRI [14]: 90%
post-emergence activity against MATIN [15]: 90%
post-emergence activity against SETVI [16]: 90%
post-emergence activity against STEME [17]: 90%
post-emergence activity against POAAN ([18]; application rate 80 g/ha, Table B7c): 90%
post-emergence activity against POAAN ([18]; application rate 320 g/ha, Table B7b): 90%
post-emergence activity against POAAN ([18]; application rate 1280 g/ha, Table B7a): 90%
post-emergence activity against AMARE [19]: 90%
post-emergence activity against VERPE ([20]; application rate 320 g/ha, Table B11b): 90%
post-emergence activity against VERPE ([20]; application rate 1280 g/ha, Table B11a): 90%
post-emergence activity against DIGSA [21]: 90%
